Assay results taken from the supplement of paper PMC10627819.

What was measured:
S. aureus DSM 20231 [1] = assay: fitness (endpoint OD595 vs no drug) (fraction); higher = more growth
Summary of the method: (§1)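 Fitness compares growth at the stationary-phase transition with the robust mean of no-drug control wells, as a ratio of optical densities. The ratio is capped at 1. Wells of 384-well plates held 30 µl, or 55 µl for S. pneumoniae, inoculated at OD595 0.01. Readings at OD595 every 30 min for 14 h at 37 °C were corrected against the first reading.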

S. aureus Newman [2] = assay: as above
Summary of the method: as §1

S. pneumoniae D39V [3] = assay: as above
Summary of the method: as §1

B. subtilis 168 = assay: Bliss interaction score (quartile over a dose matrix) (fitness difference); higher = more antagonism (negative = synergy)
Summary of the method: (§2)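 Values were capped at 1 after dividing OD595 at stationary-phase entry by the plate's robust no-drug mean. This ratio is fitness, and single-drug fitness was inferred from the combination data. The Bliss score is observed minus product-expected fitness, given as quartiles over technical, biological and donor/recipient replicates.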

S. aureus DSM 20231 [4] = assay: as above
Summary of the method: as §2

S. aureus Newman [5] = assay: as above
Summary of the method: as §2

S. pneumoniae D39V [6] = assay: as above
Summary of the method: as §2
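Throughout, for Bliss interaction score (quartile over a dose matrix): first quartile when negative (synergy) and third quartile when positive (antagonism).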

CC1(C)S[C@@H]2[C@H](NC(=O)[C@H](N)c3ccc(O)cc3)C(=O)N2[C@H]1C(=O)O [Amoxicillin] + O=C(O[C@@H]1Cc2c(O)cc(O)cc2O[C@@H]1c1cc(O)c(O)c(O)c1)c1cc(O)c(O)c(O)c1 [EGCG]
fitness
Details	partner 12.5 µg/mL	partner 25 µg/mL	partner 50 µg/mL
S. aureus DSM 20231 [1], first compound 0.0625 µg/mL	0.528	0.516	0.513
S. aureus DSM 20231 [1], first compound 0.125 µg/mL	0.363	0.411	0.376
S. aureus DSM 20231 [1], first compound 0.25 µg/mL	0.171	0.0387	0.108
S. aureus DSM 20231 [1], first compound 0.5 µg/mL	0.0001	0.0081	0
S. aureus Newman [2], first compound 0.0625 µg/mL	0.751	0.714	0.638
S. aureus Newman [2], first compound 0.125 µg/mL	0.757	0.741	0.681
S. aureus Newman [2], first compound 0.25 µg/mL	0.729	0.751	–
S. pneumoniae D39V [3], first compound 0.0008 µg/mL	0.969	0.911	0.984
S. pneumoniae D39V [3], first compound 0.0015 µg/mL	0.92	0.922	–
S. pneumoniae D39V [3], first compound 0.003 µg/mL	0.851	0.912	0.894

S. pneumoniae D39V [3], first compound 0.006 µg/mL, one replicate
Details	fitness
partner 12.5 µg/mL	0.412
partner 25 µg/mL	0.545
partner 50 µg/mL	0.601

Details	Bliss interaction score
B. subtilis 168	0.0413
S. aureus DSM 20231 [4]	0.0606
S. aureus Newman [5]	0.0679
S. pneumoniae D39V [6]	-0.0544

CO/N=C(\C(=O)N[C@@H]1C(=O)N2C(C(=O)[O-])=C(C[N+]3(C)CCCC3)CS[C@H]12)c1csc(N)n1 [Cefepime] + CC1=C\[C@@H](O)CC(=O)Cc2nc(co2)C(=O)N2CCC=C2C(=O)O[C@H](C(C)C)[C@H](C)/C=C/C(=O)NC\C=C\1 [Virginiamycin M1]
Details	fitness
S. aureus DSM 20231 [1], first compound 0.125 µg/mL, partner 0.0625 µg/mL	0.97
S. aureus DSM 20231 [1], first compound 0.125 µg/mL, partner 0.125 µg/mL	0.932
S. aureus DSM 20231 [1], first compound 0.125 µg/mL, partner 0.25 µg/mL	0.895
S. aureus DSM 20231 [1], first compound 0.25 µg/mL, partner 0.0625 µg/mL	0.78
S. aureus DSM 20231 [1], first compound 0.25 µg/mL, partner 0.125 µg/mL	0.902
S. aureus DSM 20231 [1], first compound 0.25 µg/mL, partner 0.25 µg/mL	0.862
S. aureus DSM 20231 [1], first compound 0.5 µg/mL, partner 0.0625 µg/mL	0.832
S. aureus DSM 20231 [1], first compound 0.5 µg/mL, partner 0.125 µg/mL	0.969
S. aureus DSM 20231 [1], first compound 0.5 µg/mL, partner 0.25 µg/mL	0.904
S. aureus Newman [2], first compound 0.125 µg/mL, partner 0.0625 µg/mL	0.936
S. aureus Newman [2], first compound 0.125 µg/mL, partner 0.125 µg/mL	0.932
S. aureus Newman [2], first compound 0.125 µg/mL, partner 0.25 µg/mL	0.943
S. aureus Newman [2], first compound 0.25 µg/mL, partner 0.0625 µg/mL	0.869
S. aureus Newman [2], first compound 0.25 µg/mL, partner 0.125 µg/mL	0.848
S. aureus Newman [2], first compound 0.25 µg/mL, partner 0.25 µg/mL	0.863
S. aureus Newman [2], first compound 0.5 µg/mL, partner 0.0625 µg/mL	0.768
S. aureus Newman [2], first compound 0.5 µg/mL, partner 0.125 µg/mL	0.792
S. aureus Newman [2], first compound 0.5 µg/mL, partner 0.25 µg/mL	0.775
S. pneumoniae D39V [3], first compound 0.007 µg/mL, partner 0.5 µg/mL	≥ 1
S. pneumoniae D39V [3], first compound 0.007 µg/mL, partner 1 µg/mL	≥ 1
S. pneumoniae D39V [3], first compound 0.007 µg/mL, partner 2 µg/mL	0.992
S. pneumoniae D39V [3], first compound 0.0078 µg/mL, partner 2 µg/mL	0.958
S. pneumoniae D39V [3], first compound 0.014 µg/mL, partner 0.5 µg/mL	≥ 1
S. pneumoniae D39V [3], first compound 0.014 µg/mL, partner 1 µg/mL	≥ 1
S. pneumoniae D39V [3], first compound 0.014 µg/mL, partner 2 µg/mL	≥ 1
S. pneumoniae D39V [3], first compound 0.0155 µg/mL, partner 2 µg/mL	0.946
S. pneumoniae D39V [3], first compound 0.028 µg/mL, partner 0.5 µg/mL	0.979
S. pneumoniae D39V [3], first compound 0.028 µg/mL, partner 1 µg/mL	0.956
S. pneumoniae D39V [3], first compound 0.028 µg/mL, partner 2 µg/mL	0.969
S. pneumoniae D39V [3], first compound 0.031 µg/mL, partner 2 µg/mL	0.851

fitness, one replicate
Details	first compound 0.0078 µg/mL	first compound 0.0155 µg/mL	first compound 0.031 µg/mL	first compound 0.125 µg/mL	first compound 0.25 µg/mL	first compound 0.5 µg/mL
S. aureus DSM 20231 [1], partner 0.5 µg/mL	–	–	–	0.887	0.892	0.866
S. aureus DSM 20231 [1], partner 1 µg/mL	–	–	–	0.86	0.878	0.948
S. aureus Newman [2], partner 0.5 µg/mL	–	–	–	0.865	0.819	0.732
S. aureus Newman [2], partner 1 µg/mL	–	–	–	0.873	0.916	0.768
S. aureus Newman [2], partner 2 µg/mL	–	–	–	0.888	0.798	0.706
S. pneumoniae D39V [3], partner 0.15 µg/mL	≥ 1	≥ 1	≥ 1	–	–	–
S. pneumoniae D39V [3], partner 0.3 µg/mL	≥ 1	≥ 1	0.963	–	–	–
S. pneumoniae D39V [3], partner 0.5 µg/mL	≥ 1	0.948	0.782	–	–	–
S. pneumoniae D39V [3], partner 1 µg/mL	0.958	0.962	0.686	–	–	–

Details	Bliss interaction score
B. subtilis 168	0.062
S. aureus DSM 20231 [4]	0.0738
S. aureus Newman [5]	-0.0566
S. pneumoniae D39V [6]	0.0257

CO/N=C(\C(=O)N[C@@H]1C(=O)N2C(C(=O)[O-])=C(C[N+]3(C)CCCC3)CS[C@H]12)c1csc(N)n1 [Cefepime] + CCN(CC)CCOC(=O)c1ccc(N)cc1 [Procaine]
fitness
Details	first compound 0.007 µg/mL	first compound 0.014 µg/mL	first compound 0.028 µg/mL	first compound 0.125 µg/mL	first compound 0.25 µg/mL	first compound 0.5 µg/mL
S. aureus DSM 20231 [1], partner 171 µg/mL	–	–	–	0.95	0.896	0.921
S. aureus Newman [2], partner 85.5 µg/mL	–	–	–	0.913	0.855	0.801
S. aureus Newman [2], partner 171 µg/mL	–	–	–	0.879	0.874	0.699
S. aureus Newman [2], partner 342 µg/mL	–	–	–	0.906	0.833	0.77
S. pneumoniae D39V [3], partner 85.5 µg/mL	≥ 1	≥ 1	0.974	–	–	–
S. pneumoniae D39V [3], partner 171 µg/mL	≥ 1	≥ 1	0.948	–	–	–
S. pneumoniae D39V [3], partner 342 µg/mL	≥ 1	0.999	0.955	–	–	–

fitness, S. pneumoniae D39V [3], one replicate
Details	first compound 0.0078 µg/mL	first compound 0.0155 µg/mL	first compound 0.031 µg/mL
partner 85.5 µg/mL	≥ 1	0.943	0.244
partner 171 µg/mL	≥ 1	≥ 1	0.481
partner 342 µg/mL	≥ 1	≥ 1	0.635

Details	Bliss interaction score
B. subtilis 168	0.0389
S. aureus DSM 20231 [4]	-0.0573
S. aureus Newman [5]	-0.0735
S. pneumoniae D39V [6]	0.0421

CO/N=C(\C(=O)N[C@@H]1C(=O)N2C(C(=O)[O-])=C(C[N+]3(C)CCCC3)CS[C@H]12)c1csc(N)n1 [Cefepime] + CN1C2=CC=CC=C2N=C3C1=CC=CC3=O [Pyocyanin]
Details	fitness
S. aureus DSM 20231 [1], first compound 0.125 µg/mL, partner 1.25 µg/mL	0.854
S. aureus DSM 20231 [1], first compound 0.125 µg/mL, partner 2.5 µg/mL	0.846
S. aureus DSM 20231 [1], first compound 0.125 µg/mL, partner 5 µg/mL	0.639
S. aureus DSM 20231 [1], first compound 0.25 µg/mL, partner 1.25 µg/mL	0.837
S. aureus DSM 20231 [1], first compound 0.25 µg/mL, partner 2.5 µg/mL	0.831
S. aureus DSM 20231 [1], first compound 0.25 µg/mL, partner 5 µg/mL	0.564
S. aureus DSM 20231 [1], first compound 0.5 µg/mL, partner 1.25 µg/mL	0.786
S. aureus DSM 20231 [1], first compound 0.5 µg/mL, partner 5 µg/mL	0.571
S. aureus Newman [2], first compound 0.125 µg/mL, partner 1.25 µg/mL	0.85
S. aureus Newman [2], first compound 0.125 µg/mL, partner 2.5 µg/mL	0.819
S. aureus Newman [2], first compound 0.125 µg/mL, partner 5 µg/mL	0.56
S. aureus Newman [2], first compound 0.25 µg/mL, partner 1.25 µg/mL	0.804
S. aureus Newman [2], first compound 0.25 µg/mL, partner 2.5 µg/mL	0.783
S. aureus Newman [2], first compound 0.25 µg/mL, partner 5 µg/mL	0.508
S. aureus Newman [2], first compound 0.5 µg/mL, partner 1.25 µg/mL	0.748
S. aureus Newman [2], first compound 0.5 µg/mL, partner 2.5 µg/mL	0.702
S. aureus Newman [2], first compound 0.5 µg/mL, partner 5 µg/mL	0.535
S. pneumoniae D39V [3], first compound 0.007 µg/mL, partner 0.325 µg/mL	≥ 1
S. pneumoniae D39V [3], first compound 0.007 µg/mL, partner 0.65 µg/mL	≥ 1
S. pneumoniae D39V [3], first compound 0.007 µg/mL, partner 1.3 µg/mL	0.963
S. pneumoniae D39V [3], first compound 0.014 µg/mL, partner 0.325 µg/mL	≥ 1
S. pneumoniae D39V [3], first compound 0.014 µg/mL, partner 0.65 µg/mL	0.997
S. pneumoniae D39V [3], first compound 0.014 µg/mL, partner 1.3 µg/mL	0.961
S. pneumoniae D39V [3], first compound 0.028 µg/mL, partner 0.325 µg/mL	0.946
S. pneumoniae D39V [3], first compound 0.028 µg/mL, partner 0.65 µg/mL	0.974
S. pneumoniae D39V [3], first compound 0.028 µg/mL, partner 1.3 µg/mL	0.943

fitness, S. pneumoniae D39V [3], one replicate
Details	first compound 0.0078 µg/mL	first compound 0.0155 µg/mL	first compound 0.031 µg/mL
partner 0.325 µg/mL	≥ 1	≥ 1	0.786
partner 0.65 µg/mL	≥ 1	≥ 1	0.907

Details	Bliss interaction score
B. subtilis 168	0.0781
S. aureus DSM 20231 [4]	-0.078
S. aureus Newman [5]	0.0752
S. pneumoniae D39V [6]	0.126
